# Results taken from ChEMBL document CHEMBL3817755, “Design, synthesis and biological evaluation of indazolepyrimidine based derivatives as anticancer agents with anti-angiogenic and antiproliferative activities” (Medchemcomm, 2016).
# Assays:
# Type in all cases: functional
# CCRF-CEM = assay: Growth inhibition of human CCRF-CEM cells at 10 uM after 48 hrs by SRB assay; conditions: read-out: GI
# [1] = Growth inhibition of human HL-60(TB) cells at 10 uM after 48 hrs by SRB assay; conditions: HL-60, 48 h, read-out: GI
# [2] = Growth inhibition of human MOLT4 cells at 10 uM after 48 hrs by SRB assay; conditions: MOLT-4, 48 h, read-out: GI
# [3] = Growth inhibition of human RPMI8226 cells at 10 uM after 48 hrs by SRB assay; conditions: RPMI-8226, 48 h, read-out: GI
# SR = assay: Growth inhibition of human SR cells at 10 uM after 48 hrs by SRB assay; conditions: read-out: GI
# A549 = assay: Growth inhibition of human A549/ATCC cells at 10 uM after 48 hrs by SRB assay; conditions: A549, 48 h, read-out: GI
# EKVX = assay: Growth inhibition of human EKVX cells at 10 uM after 48 hrs by SRB assay; conditions: read-out: GI
# [4] = Growth inhibition of human HOP62 cells at 10 uM after 48 hrs by SRB assay; conditions: HOP-62, 48 h, read-out: GI
# NCI-H226 = assay: Growth inhibition of human NCI-H226 cells at 10 uM after 48 hrs by SRB assay; conditions: NCI-H226, 48 h, read-out: GI
# NCI-H322M = assay: Growth inhibition of human NCI-H322M cells at 10 uM after 48 hrs by SRB assay; conditions: read-out: GI
# NCI-H460 = assay: Growth inhibition of human NCI-H460 cells at 10 uM after 48 hrs by SRB assay; conditions: NCI-H460, 48 h, read-out: GI
# NCI-H522 = assay: Growth inhibition of human NCI-H522 cells at 10 uM after 48 hrs by SRB assay; conditions: NCI-H522, 48 h, read-out: GI
# [5] = Growth inhibition of human COLO205 cells at 10 uM after 48 hrs by SRB assay; conditions: COLO 205, 48 h, read-out: GI
# [6] = Growth inhibition of human HCC2998 cells at 10 uM after 48 hrs by SRB assay; conditions: HCC 2998, 48 h, read-out: GI
# [7] = Growth inhibition of human HCT116 cells at 10 uM after 48 hrs by SRB assay; conditions: HCT-116, 48 h, read-out: GI
# [8] = Growth inhibition of human HCT15 cells at 10 uM after 48 hrs by SRB assay; conditions: HCT-15, 48 h, read-out: GI
# HT-29 = assay: Growth inhibition of human HT-29 cells at 10 uM after 48 hrs by SRB assay; conditions: HT-29, 48 h, read-out: GI
# KM12 = assay: Growth inhibition of human KM12 cells at 10 uM after 48 hrs by SRB assay; conditions: KM12, 48 h, read-out: GI
# [9] = Growth inhibition of human SW620 cells at 10 uM after 48 hrs by SRB assay; conditions: SW-620, 48 h, read-out: GI
# [10] = Growth inhibition of human SF268 cells at 10 uM after 48 hrs by SRB assay; conditions: SF-268, 48 h, read-out: GI
# [11] = Growth inhibition of human SF539 cells at 10 uM after 48 hrs by SRB assay; conditions: SF-539, 48 h, read-out: GI
# [12] = Growth inhibition of human SNB75 cells at 10 uM after 48 hrs by SRB assay; conditions: SNB-75, 48 h, read-out: GI
# M14 = assay: Growth inhibition of human M14 cells at 10 uM after 48 hrs by SRB assay; conditions: M14, 48 h, read-out: GI
# MDA-MB-435 = assay: Growth inhibition of human MDA-MB-435 cells at 10 uM after 48 hrs by SRB assay; conditions: MDA-MB-435, 48 h, read-out: GI
# SK-MEL-28 = assay: Growth inhibition of human SK-MEL-28 cells at 10 uM after 48 hrs by SRB assay; conditions: SK-MEL-28, 48 h, read-out: GI
# [13] = Growth inhibition of human IGROV1 cells at 10 uM after 48 hrs by SRB assay; conditions: IGROV-1, 48 h, read-out: GI
# [14] = Growth inhibition of human OVCAR3 cells at 10 uM after 48 hrs by SRB assay; conditions: OVCAR-3, 48 h, read-out: GI
# [15] = Growth inhibition of human OVCAR4 cells at 10 uM after 48 hrs by SRB assay; conditions: OVCAR-4, 48 h, read-out: GI
# [16] = Growth inhibition of human OVCAR5 cells at 10 uM after 48 hrs by SRB assay; conditions: OVCAR-5, 48 h, read-out: GI
# [17] = Growth inhibition of human OVCAR8 cells at 10 uM after 48 hrs by SRB assay; conditions: OVCAR-8, 48 h, read-out: GI
# [18] = Growth inhibition of human NCI-ADR-RES cells at 10 uM after 48 hrs by SRB assay; conditions: read-out: GI
# [19] = Growth inhibition of human SKOV3 cells at 10 uM after 48 hrs by SRB assay; conditions: SK-OV-3, 48 h, read-out: GI
# [20] = Growth inhibition of human Caki1 cells at 10 uM after 48 hrs by SRB assay; conditions: CAKI-1, 48 h, read-out: GI
# [21] = Growth inhibition of human RXF393 cells at 10 uM after 48 hrs by SRB assay; conditions: RXF 393, 48 h, read-out: GI
# SN12C = assay: Growth inhibition of human SN12C cells at 10 uM after 48 hrs by SRB assay; conditions: read-out: GI
# [22] = Growth inhibition of human TK10 cells at 10 uM after 48 hrs by SRB assay; conditions: TK-10, 48 h, read-out: GI
# [23] = Growth inhibition of human PC3 cells at 10 uM after 48 hrs by SRB assay; conditions: PC-3, 48 h, read-out: GI
# [24] = Growth inhibition of human DU145 cells at 10 uM after 48 hrs by SRB assay; conditions: DU-145, 48 h, read-out: GI
# MCF7 = assay: Growth inhibition of human MCF7 cells at 10 uM after 48 hrs by SRB assay; conditions: MCF7, 48 h, read-out: GI
# MDA-MB-231 = assay: Growth inhibition of human MDA-MB-231 cells at 10 uM after 48 hrs by SRB assay; conditions: MDA-MB-231, 48 h, read-out: GI
# T47D = assay: Growth inhibition of human T47D cells at 10 uM after 48 hrs by SRB assay; conditions: read-out: GI
# MDA-MB-468 = assay: Growth inhibition of human MDA-MB-468 cells at 10 uM after 48 hrs by SRB assay; conditions: MDA-MB-468, 48 h, read-out: GI
structure (smiles),measurement,setting,value
COc1ccc(Nc2nccc(Nc3ccc4[nH]ncc4c3)n2)cc1,inhibition of growth at 10 µM,CCRF-CEM,102%
same,inhibition of growth at 10 µM,[1],40%
same,inhibition of growth at 10 µM,[2],99%
same,inhibition of growth at 10 µM,[3],97%
same,inhibition of growth at 10 µM,SR,96%
same,inhibition of growth at 10 µM,A549,76%
same,inhibition of growth at 10 µM,EKVX,49%
same,inhibition of growth at 10 µM,[4],51%
same,inhibition of growth at 10 µM,NCI-H226,72%
same,inhibition of growth at 10 µM,NCI-H322M,37%
same,inhibition of growth at 10 µM,NCI-H460,75%
same,inhibition of growth at 10 µM,NCI-H522,81%
same,inhibition of growth at 10 µM,[5],74%
same,inhibition of growth at 10 µM,[6],37%
same,inhibition of growth at 10 µM,[7],81%
same,inhibition of growth at 10 µM,[8],94%
same,inhibition of growth at 10 µM,HT-29,88%
same,inhibition of growth at 10 µM,KM12,90%
same,inhibition of growth at 10 µM,[9],75%
same,inhibition of growth at 10 µM,[10],53%
same,inhibition of growth at 10 µM,[11],31%
same,inhibition of growth at 10 µM,[12],34%
same,inhibition of growth at 10 µM,M14,67%
same,inhibition of growth at 10 µM,MDA-MB-435,65%
same,inhibition of growth at 10 µM,SK-MEL-28,34%
same,inhibition of growth at 10 µM,[13],49%
same,inhibition of growth at 10 µM,[14],51%
same,inhibition of growth at 10 µM,[15],67%
same,inhibition of growth at 10 µM,[16],48%
same,inhibition of growth at 10 µM,[17],91%
same,inhibition of growth at 10 µM,[18],82%
same,inhibition of growth at 10 µM,[19],48%
same,inhibition of growth at 10 µM,[20],62%
same,inhibition of growth at 10 µM,[21],68%
same,inhibition of growth at 10 µM,SN12C,57%
same,inhibition of growth at 10 µM,[22],81%
same,inhibition of growth at 10 µM,[23],87%
same,inhibition of growth at 10 µM,[24],68%
same,inhibition of growth at 10 µM,MCF7,87%
same,inhibition of growth at 10 µM,MDA-MB-231,51%
same,inhibition of growth at 10 µM,T47D,104%
same,inhibition of growth at 10 µM,MDA-MB-468,56%
COc1cccc(Nc2nccc(Nc3ccc4[nH]ncc4c3)n2)c1,inhibition of growth at 10 µM,[1],162%
same,inhibition of growth at 10 µM,[2],132%
same,inhibition of growth at 10 µM,[3],140%
same,inhibition of growth at 10 µM,SR,111%
same,inhibition of growth at 10 µM,A549,168%
same,inhibition of growth at 10 µM,EKVX,66%
same,inhibition of growth at 10 µM,[4],111%
same,inhibition of growth at 10 µM,NCI-H226,117%
same,inhibition of growth at 10 µM,NCI-H322M,93%
same,inhibition of growth at 10 µM,NCI-H460,168%
same,inhibition of growth at 10 µM,NCI-H522,168%
same,inhibition of growth at 10 µM,[5],188%
same,inhibition of growth at 10 µM,[6],107%
same,inhibition of growth at 10 µM,[7],187%
same,inhibition of growth at 10 µM,[8],127%
same,inhibition of growth at 10 µM,HT-29,158%
same,inhibition of growth at 10 µM,KM12,144%
same,inhibition of growth at 10 µM,[9],169%
same,inhibition of growth at 10 µM,[10],74%
same,inhibition of growth at 10 µM,[11],86%
same,inhibition of growth at 10 µM,[12],70%
same,inhibition of growth at 10 µM,M14,174%
same,inhibition of growth at 10 µM,MDA-MB-435,178%
same,inhibition of growth at 10 µM,SK-MEL-28,143%
same,inhibition of growth at 10 µM,[13],124%
same,inhibition of growth at 10 µM,[14],161%
same,inhibition of growth at 10 µM,[15],160%
same,inhibition of growth at 10 µM,[16],67%
same,inhibition of growth at 10 µM,[17],181%
same,inhibition of growth at 10 µM,[18],111%
same,inhibition of growth at 10 µM,[19],85%
same,inhibition of growth at 10 µM,[20],131%
same,inhibition of growth at 10 µM,[21],82%
same,inhibition of growth at 10 µM,SN12C,80%
same,inhibition of growth at 10 µM,[22],178%
same,inhibition of growth at 10 µM,[23],181%
same,inhibition of growth at 10 µM,[24],159%
same,inhibition of growth at 10 µM,MCF7,151%
same,inhibition of growth at 10 µM,MDA-MB-231,85%
same,inhibition of growth at 10 µM,T47D,152%
same,inhibition of growth at 10 µM,MDA-MB-468,145%
Fc1ccc(Nc2nccc(Nc3ccc4[nH]ncc4c3)n2)cc1,inhibition of growth at 10 µM,[1],31%
same,inhibition of growth at 10 µM,[2],74%
same,inhibition of growth at 10 µM,[3],59%
same,inhibition of growth at 10 µM,SR,62%
same,inhibition of growth at 10 µM,A549,43%
same,inhibition of growth at 10 µM,EKVX,29%
same,inhibition of growth at 10 µM,[4],41%
same,inhibition of growth at 10 µM,NCI-H226,53%
same,inhibition of growth at 10 µM,NCI-H322M,27%
same,inhibition of growth at 10 µM,NCI-H460,40%
same,inhibition of growth at 10 µM,NCI-H522,57%
same,inhibition of growth at 10 µM,[5],39%
same,inhibition of growth at 10 µM,[6],1%
same,inhibition of growth at 10 µM,[7],45%
same,inhibition of growth at 10 µM,[8],38%
same,inhibition of growth at 10 µM,HT-29,47%
same,inhibition of growth at 10 µM,KM12,76%
same,inhibition of growth at 10 µM,[9],31%
same,inhibition of growth at 10 µM,[10],29%
same,inhibition of growth at 10 µM,[11],22%
same,inhibition of growth at 10 µM,[12],15%
same,inhibition of growth at 10 µM,M14,38%
same,inhibition of growth at 10 µM,MDA-MB-435,25%
same,inhibition of growth at 10 µM,SK-MEL-28,11%
same,inhibition of growth at 10 µM,[13],44%
same,inhibition of growth at 10 µM,[14],14%
same,inhibition of growth at 10 µM,[15],27%
same,inhibition of growth at 10 µM,[16],32%
same,inhibition of growth at 10 µM,[17],59%
same,inhibition of growth at 10 µM,[18],32%
same,inhibition of growth at 10 µM,[19],24%
same,inhibition of growth at 10 µM,[20],51%
same,inhibition of growth at 10 µM,[21],67%
same,inhibition of growth at 10 µM,SN12C,40%
same,inhibition of growth at 10 µM,[22],38%
same,inhibition of growth at 10 µM,[23],54%
same,inhibition of growth at 10 µM,[24],34%
same,inhibition of growth at 10 µM,MCF7,37%
same,inhibition of growth at 10 µM,MDA-MB-231,21%
same,inhibition of growth at 10 µM,T47D,71%
same,inhibition of growth at 10 µM,MDA-MB-468,53%
